Test results from patent US8871794B2, “Small-molecule agonists for type-2 orexin receptor” (Board of Regents, The University of Texas System, priority 2008, dated 2014).
Like-named read-outs stand apart in the source and are kept apart here.

Assay: Metabolism in mouse CD-1 S9 fractions (phase I, phase I+II)
Format: in vitro ADME
Settings: for half-life at 2 μM: CD-1, mouse, S9 fractions (hepatocyte S9)
Method: Metabolism: 2 μM Yan7874 was incubated in 1 ml 0.1 M Tris/0.5% NaHCO3/3 mm MgCl2 solution with 1 mg mouse CD-1 S9 protein (In Vitro Technologies, Baltimore, Md.) at 37° C. Cofactors necessary for phase I and II metabolism were added as recommended by In Vitro Technologies (phase I: 1.7 mg/ml NADP, 7.8 mg/ml glucose-6-phophate, 6 U/ml glucose-6-phosphate dehydrogenase; phase II additionally add 1.9 mg/ml uridine 5′-diphospho-α-D-glucuronic acid and 100 μg/ml 3′-phosphoadenosine-5′-phophosulphate). Protein was precipitated by the addition of 1 volume of methanol. Samples in 50:50 buffer:methanol+0.1% added formic acid were analyzed as follows. An analytical method was developed to detect Yan7874 using LC/MS/MS. […] The fraction of parent compound remaining was plotted over time and a curve fit to the data. The time at which 50% of compound remains is designated the in vitro half-life.

stability in vitro using hepatocyte S9 fractions (2 μM, mouse CD-1 S9, 37° C.): relatively stable
half-life at 2 μM (Phase I+II, read-out: half-life for in vitro combined Phase I+II metabolism in S9 fractions): 0.933 h
half-life at 2 μM (Phase I, read-out: half-life for in vitro Phase I metabolism in S9 fractions): 1.13 h
Compound: Cc1ccc(Cn2c(=N)n(CC(O)c3ccc(Cl)c(Cl)c3)c3ccccc32)cc1 (stereo not drawn) [Compound 130699]
